# Results taken from patent publication US20260365696A1, “INHIBITORS OF PTP1B / NCK1 INTERACTION AND METHODS OF MAKING AND USING SAME” (Radella Pharmaceuticals LLC, priority 2023, published 2026).
# Key:
# Caco-2 cells = test: Caco-2 permeability assay; assay type: in vitro ADME, human
# Procedure: (§1) Permeability (Caco-2 assay): Caco 2 cells were used as an in vitro model of the human intestinal epithelium and to permit assessment of the intestinal permeability of potential drugs. Test compound was added to either the apical or basolateral side of a confluent monolayer of Caco 2 cells and permeability was measured by monitoring the appearance of the test compound on the opposite side of the monolayer using LC-MS/MS. When performing a bi-directional assay, the efflux ratio (ER) was calculated from the ratio of B-A and A-B permeabilities.
# (§2) Briefly, Caco 2 cells obtained (ATCC) were used between passage numbers 40 and 60. Cells were seeded on to Transwell plates at 1×10^5 cells/cm^2. The cells were cultured in DMEM and media was changed every two or three days. On day 20, the permeability study was performed. […]
# (§3) Test and control compounds were quantified by LC-MS/MS cassette analysis using a 7-point calibration with appropriate dilution of the samples. […] The starting concentration (C0) was determined from the dosing solution and the experimental recovery was calculated from C0 and both apical and basolateral compartment concentrations.
# (§4) Data Analysis: The permeability coefficient (Papp) for each compound was calculated from the following equation: […]
# (§5) For bi directional experiments, an efflux ratio (ER) was calculated from mean A-B and B-A data using the following equation: […]
# [1] = Caco-2 permeability assay; assay type: in vitro ADME, human; settings: human, Papp(B-A)/Papp(A-B), 120 min
# Procedure: as §1, §2, §3, §4, §5
substance,measurement,setting,value
"Ac-PRPPKR-NH2 [MD20, Ac-PRPPKR-NH2]",permeation of cells relative to antihypertensive drugs,Caco-2 cells,"able to permeate the cells at the same rate as some antihypertensive drugs (e.g., nicardipine)"
same,efflux ratio at 2 h,[1],0.252
